Measured values as given in ChEMBL document CHEMBL1150275, “Pharmacological and pharmacokinetic characterization of 2-piperazine-alpha-isopropyl benzylamine derivatives as melanocortin-4 receptor antagonists” (Bioorg Med Chem, 2008).

Columns and labels:
[1] = Cmax in mouse at 5 mg/kg, iv and 10 mg/kg, po; type: ADME, organism-based; details: in vivo
[2] = tested on: Caco-2; experiment: Apparent permeability across human Caco-2 cells; type: ADME, cell-based
[3] = Drug level in mouse brain at 5 mg/kg, iv after 4 hrs; type: ADME, organism-based; design: dose 5 mg/kg, route intravenous; details: read-out: Drug uptake
[4] = Ratio of drug level in brain to plasma in mouse at 5 mg/kg, iv after 1 hr; type: ADME, organism-based; design: dose 5 mg/kg, route intravenous
[5] = Oral bioavailability in mouse at 10 mg/kg; type: ADME, organism-based; details: in vivo
[6] = Drug level in mouse brain at 5 mg/kg, iv after 1 hr; type: ADME, organism-based; design: dose 5 mg/kg, route intravenous; details: read-out: Drug uptake
[7] = Tmax in mouse at 5 mg/kg, iv and 10 mg/kg, po; type: ADME, organism-based; details: in vivo
[8] = Volume of distribution in mouse at 5 mg/kg, iv and 10 mg/kg, po; type: ADME, organism-based; details: in vivo
[9] = physchem; details: buffer, pH 7.4
[10] = Ratio of drug level in brain to plasma in mouse at 5 mg/kg, iv after 4 hrs; type: ADME, organism-based; design: dose 5 mg/kg, route intravenous
[11] = AUC in mouse at 10 mg/kg, po; type: ADME, organism-based; design: dose 10 mg/kg, route oral; details: plasma

Row | SMILES | Cmax [1] | Papp [2] | concentration at 4 h [3] | Kp at 1 h [4] | bioavailability [5] | concentration at 1 h [6] | Tmax [7] | Vd [8] | logD [9] | Kp at 4 h [10] | AUC [11]
1 | CC(C)[C@H](NC(=O)CCN(C)C)c1cc(Cl)ccc1N1CCN(C(=O)[C@H](C)Cc2ccc(Cl)cc2)CC1 | 109 ng/mL | 9 ×10⁻⁶ cm/s | 176 ng/g | 1.9 | 19% | 580 ng/g | 1 h | 11 L/kg | 4 | 2.3 | 600 ng·h/mL
2 | CNCC(=O)N[C@H](c1cccc(F)c1N1CCN(C(=O)[C@H](C)Cc2ccc(Cl)cc2)CC1)C(C)C | 165 ng/mL | 1 ×10⁻⁶ cm/s | 126 ng/g | 0.6 | 21% | 231 ng/g | 0.5 h | 19 L/kg | 2.4 | 1.1 | 813 ng·h/mL
3 | CNCCN[C@H](c1cccc(F)c1N1CCN(C(=O)[C@H](C)Cc2ccc(Cl)cc2)CC1)C(C)C | 166 ng/mL | 0.4 ×10⁻⁶ cm/s | 62 ng/g | 0.4 | 47% | 53 ng/g | 0.5 h | 52 L/kg | 2.6 | 1.2 | 1630 ng·h/mL
4 | CNCC(=O)N[C@H](c1cccc(F)c1N1CCN(C(=O)[C@H](C)Cc2ccc(Cl)cc2Cl)CC1)C(C)C | 172 ng/mL | 2 ×10⁻⁶ cm/s | 71 ng/g | 0.3 | 23% | 85 ng/g | 2 h | 13 L/kg | 4.3 | 0.5 | 1010 ng·h/mL
5 | CNCC(=O)N[C@H](c1cc(Cl)ccc1N1CCN(C(=O)[C@H](C)Cc2ccc(Cl)cc2)CC1)C(C)C | 88 ng/mL | – | 62 ng/g | 0.7 | 13% | – | 0.5 h | 16 L/kg | 4.3 | 1.5 | 232 ng·h/mL

Continued, values first:

Row | Cmax [1] | Papp [2] | concentration at 4 h [3] | Kp at 1 h [4] | bioavailability [5] | concentration at 1 h [6] | Tmax [7] | Vd [8] | logD [9] | Kp at 4 h [10] | AUC [11] | SMILES
6 | 114 ng/mL | 2 ×10⁻⁶ cm/s | 107 ng/g | 0.5 | 12% | – | 0.5 h | 29 L/kg | 3.1 | 1.7 | 374 ng·h/mL | CNCC(=O)N[C@H](c1cccc(F)c1N1CCN(C(=O)[C@H](C)Cc2ccc(Cl)cc2OC)CC1)C(C)C
7 | 151 ng/mL | 0.3 ×10⁻⁶ cm/s | 39 ng/g | 0.1 | 5.8% | 61 ng/g | 2 h | 8.2 L/kg | 2.3 | 0.4 | 422 ng·h/mL | COc1cc(Cl)ccc1C[C@@H](C)C(=O)N1CCN(c2ccc(Cl)cc2[C@@H](NC(=O)C2CNC2)C(C)C)CC1
8 | 762 ng/mL | 2 ×10⁻⁶ cm/s | 77 ng/g | 0.1 | 58% | 79 ng/g | 6 h | 3 L/kg | 3 | 0.1 | 9160 ng·h/mL | CC(C)[C@H](NC(=O)C1CN(C)C1)c1cc(Cl)ccc1N1CCN(C(=O)[C@H](C)Cc2ccc(Cl)cc2)CC1
9 | 104 ng/mL | 0.2 ×10⁻⁶ cm/s | 32 ng/g | 0.1 | 5.6% | 51 ng/g | 2 h | 10 L/kg | 2.6 | 0.4 | 336 ng·h/mL | COc1cc(Cl)ccc1C[C@@H](C)C(=O)N1CCN(c2c(F)cccc2[C@@H](NC(=O)C2CNC2)C(C)C)CC1
